The values that follow come from patent US20240207202A1, “COMBINATION THERAPIES TARGETING MITOCHONDRIAL BIOGENESIS FOR CANCER THERAPY” (The Wistar Institute of Anatomy and Biology, priority 2015, published 2024).

The subject of test [1] is HKI, HKII, PDHE1, PDK1, PDK2, LDHA, PKM1, GLUT1 and GLUT3. Briefly: Expression of glycolysis regulators in WM9 cells (qRT-PCR, immunoblot). It counts as cell-based, human. Conditions: WM9, Gamitrinib combined with PLX4720. The protocol: (§1) One μg total mRNA was reverse transcribed using a Maxima First Strand cDNA Synthesis Kit for qRT-PCR (Thermo Fisher). Fast SYBR® Green Master Mix (Life Technologies) was used with cDNA template and primers to evaluate the expression of target genes and GAPDH. Primers used were purchased from Integrated DNA Technologies. Amplifications were performed using an Applied Biosystems® 7500 Real-Time PCR System (Life Technologies). All experiments were performed in triplicate. Expression ratios of controls were normalized to 1. Please see Extended Experimental Procedures for the list of PCR primer sequences.
(§2) Cells were washed with ice-cold PBS containing 100 μM Na3VO4 and scraped off culture dishes. After centrifugation, cell pellets were lysed in buffer containing 10 mM Tris-HCl, pH 7.8, 150 mM NaCl, 1 mM EDTA, 1% Nonidet P-40, 1 mM Na3VO4 and protease inhibitors (Roche complete protease inhibitor tablets). Lysates were cleared by micro-centrifugation and protein concentrations were determined with Protein Assay Dye Reagent Concentrate (Bio-Rad). For western blots, 25 μg of each lysate were run on 15-well 10% or 12% SDS-PAGE gels and transferred onto nitrocellulose membranes using a dye fast Trans-BlotR Turbo™ transfer system (Bio-Rad). […]
Background: Quantitative PCR measures a nucleic acid by following its amplification.

In a further test the test system is WM4265-2 cells. Kind of test: Tumor volume of WM4265-2 xenografts. It counts as in vivo, mice. Conditions: WM4265-2 xenografts (immunotherapy-progressed patient PDX line); Gamitrinib 10 mg/kg. The protocol:
Mice were xenografted with WM4265-2 cells until tumors were established and then treated with Gamitrinib (10 mg/kg).

The test system of test [2] is LC3B-II, phospho-S6, phospho-AMPKα. Kind of test: RPPA and immunoblotting of autophagy and metabolic stress markers in WM9 cells. The test is classed as cell-based, human. The text has this: The raw data of gene expression microarrays generated from Illumina Chips were normalized, background-corrected and summarized using the R package “lumi” (Du et al., 2008). Probes below background level (detection P-value <0.01) were excluded and differential expression was identified with Bayes-adjusted variance analysis using the Bioconductor Limma package. To reduce false positives, the unexpressed probes were removed. The R package “limma” (Smyth, 2004, 2005) was employed for gene differential expression analysis, followed by multiple test correction by the Benjamini and Hochberg procedure (Benjamini and Hochberg, 1995). […] We also conducted GSEA as previously reported (Subramanian et al., 2005). For GSEA, we analyzed gene sets obtained from the Molecular Signatures Database (broadinstitute.org/gsea/msigdb/). The same differential expression analysis method was applied to RPPA data.
Cells were washed with ice-cold PBS containing 100 μM Na3VO4 and scraped off culture dishes. After centrifugation, cell pellets were lysed in buffer containing 10 mM Tris-HCl, pH 7.8, 150 mM NaCl, 1 mM EDTA, 1% Nonidet P-40, 1 mM Na3VO4 and protease inhibitors (Roche complete protease inhibitor tablets). Lysates were cleared by micro-centrifugation and protein concentrations were determined with Protein Assay Dye Reagent Concentrate (Bio-Rad). […]

A further test deals with SOD2. Briefly: SOD2 expression in WM9 cells (qRT-PCR, immunoblot). It counts as cell-based, human. Conditions: WM9, 72 h, Gamitrinib 1 μM with MAPK pathway inhibitors. The protocol:
as §1, §2

Take Gamitrinib: the “expression of key regulators of aerobic glycolysis, mRNA and protein” value in test [1] is given as “substantially down-regulated”. The tumor growth entry in the test with WM4265-2 cells was “significantly inhibited tumor growth”. For the same substance, the “LC3B-II, phospho-S6 and phospho-AMPKα” value in test [2] is “down-regulated LC3B-II and phospho-S6 and up-regulated phospho-AMPKα”. The “SOD2 expression compared to MAPK pathway inhibitors alone, mRNA and protein” value in the test with SOD2 was “up-regulation of SOD2”.
